Legend:
Type in all cases: biochemical
SIK3 = SIK3 (Homo sapiens (Human), UniProt Q9Y2K2); assay: Phosphorylation assay SIK3 (RapidFire mass spectrometry); conditions: 1.5 nM SIK3, CHK-peptide, ATP, 30 min pre-incubation, 45 min incubation; read-out: SIK3 RF IC50
Description: (§1) In the presence of SIK2 (resp. SIK1 or SIK3) and ATP the CHK-peptide ([…] with C-terminal arginine amide modification) were phosphorylated at one of the four feasible serine's. Only one phosphorylation is observed under the assay conditions. 60 nl of each compound dilution series (12 point; dilution factor 3, generally 30 μM to 170 pM) in DMSO were transferred by acoustic dispensing to the assay plate and 30 minutes pre-incubated (ambient temperature) after the addition of 5 μl SIK1 (5 nM) resp. 5 μl SIK2 (0.5 nM) or 7 μl SIK3 (1.5 nM) in assay-buffer (12.5 mM HEPES (pH 7.0), 10 mM magnesium acetate, 0.005% BSA). 10 μM CHK-peptide solution and 5 μl of 100 μM ATP for SIK1 & SIK2 resp. 3 μl for SIK3 in assay-buffer were added and incubated ambient for 45 minutes. 40 μl of 0.125% formic acid in water were added to quench the reaction. RapidFire (RF) Mass Spectrometry was utilized for data generation as described below. The multiple charged species (3-5 charges) for the phosphorylated and non-phosphorylated form measured by MRM (Multiple Reaction Monitoring; API5000 or 6500+) or EIC (Extracted Ion Current; QToF) were summed up and the ratio calculated (sum phosphorylated species/sum all species) for data evaluation. Normalization was performed by Genedata software based on the non-inhibition control DMSO and the commercially available SIK inhibitor @1 μM YKL-05-099 (CAS number 1936529-65-5). The results of the assay are expressed in half-maximal inhibitory concentrations (IC50s) and are summarized below in Table 1.
(§2) Samples were aspirated by vacuum for max. 600 ms and loaded to C4-cartridge (Agilent; #G9203A) for 3000 ms@1.5 ml/min with 0.1% formic acid in water. Afterwards samples were transferred to the API5000 (API6500+) or QToF mass spectrometer for 4000 ms@1.25 ml/min with 90% acetonitrile; 10% water; 0.007% TFA; 0.093 formic acid. The cartridge was reconditioned for additional 500 ms with 0.1% formic acid in water.
(§3) All MS analyses using the following MS-setup in MRM mode: Electrospray positive; Ion Spray Voltage: 4000V; Temperature: 550° C.; Collision Gas: 5; Curtain Gas: 15; Gas 1: 40; Gas 2: 42; EP: 10. DP=declustering potential; CE=collision energy; CXP=cell exit potential.
(§4) All MS analyses using the following MS-setup in Mode MS: Dual AJS Electrospray positive; VCap: 3000V; Drying & Sheath gas: 340° C.@81/min; Nebulizer: 60 psig; Nozzle Voltage: 2000V; Fragmentor: 130V; Skimmer: 35V; Oct1 RF Vpp: 700V; Ref masses on@5spectra/s

SIK2 = SIK2 (Homo sapiens (Human), UniProt Q9H0K1); assay: Phosphorylation assay SIK2 (RapidFire mass spectrometry); conditions: 0.5 nM SIK2, CHK-peptide, ATP, 30 min pre-incubation, 45 min incubation; read-out: SIK2 RF IC50
Description: as §1, §2, §3, §4

SIK1 = SIK1 (Homo sapiens (Human), UniProt P57059); assay: Phosphorylation assay SIK1 (RapidFire mass spectrometry); conditions: 5 nM SIK1, CHK-peptide, ATP, 30 min pre-incubation, 45 min incubation; read-out: SIK1 RF IC50
Description: as §1, §2, §3, §4

Sequence of SIK3 (Q9Y2K2 whole entry): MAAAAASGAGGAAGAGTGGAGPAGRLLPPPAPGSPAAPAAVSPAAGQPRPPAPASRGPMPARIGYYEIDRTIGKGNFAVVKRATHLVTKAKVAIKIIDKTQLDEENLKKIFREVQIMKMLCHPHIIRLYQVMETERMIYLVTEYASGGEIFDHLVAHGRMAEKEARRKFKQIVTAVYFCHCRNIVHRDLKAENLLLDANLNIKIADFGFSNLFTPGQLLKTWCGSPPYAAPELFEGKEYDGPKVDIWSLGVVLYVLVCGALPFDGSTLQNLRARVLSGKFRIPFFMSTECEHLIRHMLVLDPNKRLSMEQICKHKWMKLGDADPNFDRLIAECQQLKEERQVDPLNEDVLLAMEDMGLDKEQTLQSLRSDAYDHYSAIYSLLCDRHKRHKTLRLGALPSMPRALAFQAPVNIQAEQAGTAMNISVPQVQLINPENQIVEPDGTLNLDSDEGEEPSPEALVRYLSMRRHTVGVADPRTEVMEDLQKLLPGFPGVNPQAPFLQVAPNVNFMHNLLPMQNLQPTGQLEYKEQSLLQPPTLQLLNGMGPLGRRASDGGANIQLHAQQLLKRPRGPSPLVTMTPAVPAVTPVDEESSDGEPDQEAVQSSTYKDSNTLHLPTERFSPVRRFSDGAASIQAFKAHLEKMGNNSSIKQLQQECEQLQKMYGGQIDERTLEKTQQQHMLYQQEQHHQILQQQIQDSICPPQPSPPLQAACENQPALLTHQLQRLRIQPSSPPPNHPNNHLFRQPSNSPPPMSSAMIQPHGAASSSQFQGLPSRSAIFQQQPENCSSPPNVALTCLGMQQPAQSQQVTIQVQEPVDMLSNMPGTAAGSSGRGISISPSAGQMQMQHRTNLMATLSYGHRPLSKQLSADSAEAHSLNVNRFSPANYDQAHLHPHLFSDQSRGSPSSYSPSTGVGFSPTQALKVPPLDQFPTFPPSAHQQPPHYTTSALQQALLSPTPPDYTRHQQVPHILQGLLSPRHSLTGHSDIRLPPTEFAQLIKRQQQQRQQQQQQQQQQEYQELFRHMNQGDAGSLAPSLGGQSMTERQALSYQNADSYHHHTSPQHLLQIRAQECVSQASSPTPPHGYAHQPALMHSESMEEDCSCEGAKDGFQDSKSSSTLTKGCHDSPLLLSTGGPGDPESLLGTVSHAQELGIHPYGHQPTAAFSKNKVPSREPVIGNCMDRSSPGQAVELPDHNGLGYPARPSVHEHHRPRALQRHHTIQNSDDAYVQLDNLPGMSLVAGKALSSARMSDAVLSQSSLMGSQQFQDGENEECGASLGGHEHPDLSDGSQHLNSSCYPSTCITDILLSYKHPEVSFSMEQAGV
Sequence of SIK1 (P57059 whole entry): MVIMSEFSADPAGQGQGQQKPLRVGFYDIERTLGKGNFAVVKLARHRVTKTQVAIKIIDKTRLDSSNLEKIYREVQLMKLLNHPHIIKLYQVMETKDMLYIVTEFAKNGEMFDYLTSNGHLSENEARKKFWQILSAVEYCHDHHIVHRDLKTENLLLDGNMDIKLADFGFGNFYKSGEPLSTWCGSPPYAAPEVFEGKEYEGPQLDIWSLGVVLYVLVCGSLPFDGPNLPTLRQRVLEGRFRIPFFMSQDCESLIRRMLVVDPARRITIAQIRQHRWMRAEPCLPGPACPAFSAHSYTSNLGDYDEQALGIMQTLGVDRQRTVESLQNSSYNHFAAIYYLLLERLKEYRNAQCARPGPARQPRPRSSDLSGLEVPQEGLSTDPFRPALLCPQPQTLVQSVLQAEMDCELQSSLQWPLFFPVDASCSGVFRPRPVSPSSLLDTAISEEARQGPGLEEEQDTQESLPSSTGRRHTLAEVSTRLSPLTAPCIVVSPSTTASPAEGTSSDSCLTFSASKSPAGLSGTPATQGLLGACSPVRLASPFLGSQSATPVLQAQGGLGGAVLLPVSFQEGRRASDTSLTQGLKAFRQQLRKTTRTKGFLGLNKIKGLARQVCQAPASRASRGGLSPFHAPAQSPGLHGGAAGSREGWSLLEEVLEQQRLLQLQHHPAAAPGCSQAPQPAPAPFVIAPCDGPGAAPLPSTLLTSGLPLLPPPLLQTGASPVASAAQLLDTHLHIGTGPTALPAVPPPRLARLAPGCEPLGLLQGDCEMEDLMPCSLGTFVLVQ
Sequence of SIK2 (Q9H0K1 whole entry): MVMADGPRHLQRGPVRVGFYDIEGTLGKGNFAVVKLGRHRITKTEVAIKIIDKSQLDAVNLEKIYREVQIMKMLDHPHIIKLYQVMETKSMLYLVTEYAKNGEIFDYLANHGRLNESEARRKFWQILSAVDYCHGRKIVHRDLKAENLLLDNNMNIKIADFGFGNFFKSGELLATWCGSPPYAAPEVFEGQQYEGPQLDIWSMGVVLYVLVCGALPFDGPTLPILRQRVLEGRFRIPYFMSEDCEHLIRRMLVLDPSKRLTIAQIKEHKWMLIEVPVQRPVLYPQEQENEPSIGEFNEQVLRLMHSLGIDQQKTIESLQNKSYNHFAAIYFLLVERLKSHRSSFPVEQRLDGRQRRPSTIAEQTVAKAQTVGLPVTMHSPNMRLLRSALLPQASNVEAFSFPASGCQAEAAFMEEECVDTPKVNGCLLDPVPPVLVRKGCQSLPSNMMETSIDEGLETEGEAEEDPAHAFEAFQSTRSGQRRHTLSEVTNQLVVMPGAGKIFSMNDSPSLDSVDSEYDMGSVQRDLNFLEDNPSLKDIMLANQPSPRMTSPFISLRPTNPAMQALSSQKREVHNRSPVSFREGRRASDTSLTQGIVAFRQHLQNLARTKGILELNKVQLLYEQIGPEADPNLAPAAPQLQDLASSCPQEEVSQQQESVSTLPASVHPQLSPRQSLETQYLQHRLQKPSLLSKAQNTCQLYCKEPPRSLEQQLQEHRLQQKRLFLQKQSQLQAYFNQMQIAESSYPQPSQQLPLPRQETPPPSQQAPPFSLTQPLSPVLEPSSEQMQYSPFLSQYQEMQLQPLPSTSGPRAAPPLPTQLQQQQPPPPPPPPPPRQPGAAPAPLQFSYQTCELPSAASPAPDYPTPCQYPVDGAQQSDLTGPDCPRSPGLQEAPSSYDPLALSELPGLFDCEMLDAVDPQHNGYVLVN

Row | IC50 (SIK3) [nM] | IC50 (SIK2) [nM] | IC50 (SIK1) [nM] | SMILES
1 | 2 | 16 | 2800 | Cc1ccc(Nc2cnc3c(c2)ncn3-c2ccc(C(C)O)c(-n3nc(C#N)cc3C)c2)nn1 (stereo not drawn) [Example 1, 1-[2-(1-Hydroxyethyl)-5-[6-[(6-methylpyridazin-3-yl)amino]imidazo[4,5-b]pyridin-3-yl]phenyl]-5-methyl-pyrazole-3-carbonitrile]
2 | 0.3 | 1 | 616 | Cc1ccc(Nc2cnc3c(-c4ccc(C(C)O)c(-n5nc(C#N)cc5C)c4)cnn3c2)nn1 (stereo not drawn) [Example 2, 1-[2-(1-Hydroxyethyl)-5-[6-[(6-methylpyridazin-3-yl)amino]pyrazolo[1,5-a]pyrimidin-3-yl]phenyl]-5-methyl-pyrazole-3-carbonitrile]
3 | 27 | 207 | 16600 | Cc1cc(C(F)F)nn1-c1cc(-n2cnc3cc(Nc4cccnn4)cnc32)ccc1C(C)O (stereo not drawn) [Example 3, 1-[2-[3-(Difluoromethyl)-5-methyl-pyrazol-1-yl]-4-[6-(pyridazin-3-ylamino)imidazo[4,5-b]pyridin-3-yl]phenyl]ethanol]
4 | 207 | 7 | 18600 | COc1nc2c(cc1Nc1nnc(C)cc1C(=O)N(C)C)ncn2-c1ccc(C#N)c(-n2nc(OC(F)F)cc2C)c1 [Example 4, 3-[[3-[4-cyano-3-[3-(difluoromethoxy)-5-methyl-pyrazol-1-yl]phenyl]-5-methoxy-imidazo[4,5-b]pyridin-6-yl]amino]-N,N,6-trimethyl-pyridazine-4-carboxamide]
5 | 12 | 106 | 14600 | Cc1ccc(Oc2cnc3c(-c4ccc(C(C)O)c(-n5nc(C#N)cc5C)c4)cnn3c2)nn1 (stereo not drawn) [Example 5, 1-[2-(1-Hydroxyethyl)-5-[6-(6-methylpyridazin-3-yl)oxypyrazolo[1,5-a]pyrimidin-3-yl]phenyl]-5-methylpyrazole-3-carbonitrile]
6 | 366 | 152 | ≥ 30000 | Cc1cc(C(=O)N(C)C)c(Nc2cnc3c(c2)ncn3-c2ccc(C#N)c(-n3nc(OC(F)F)cc3C)c2)nn1 [Example 6, 3-[[3-[4-Cyano-3-[3-(difluoromethoxy)-5-methyl-pyrazol-1-yl]phenyl]imidazo[4,5-b]pyridin-6-yl]amino]-N,N,6-trimethyl-pyridazine-4-carboxamide]
7 | 6 | 21 | 6010 | Cc1ccc(Nc2cnc3c(c2)ncn3-c2cc(F)c(C(C)O)c(-n3nc(C#N)cc3C)c2)nn1 (stereo not drawn) [Example 7, 1-[3-Fluoro-2-(1-hydroxyethyl)-5-[6-[(6-methylpyridazin-3-yl)amino]imidazo[4,5-b]pyridin-3-yl]phenyl]-5-methyl-pyrazole-3-carbonitrile]
8 | 4 | 52 | ≥ 30000 | Cc1ccc(Nc2cnc3c(-c4ccc(C(C)O)c(-n5nc(C(F)F)cc5C)c4)cnn3c2)nn1 (stereo not drawn) [Example 8, 1-[2-[3-(Difluoromethyl)-5-methyl-pyrazol-1-yl]-4-[6-[(6-methylpyridazin-3-yl)amino]pyrazolo[1,5-a]pyrimidin-3-yl]phenyl]ethanol]
